Source: PubChem BioAssay (NCI)
“And” between values parts separate entries of the source, which are not always exact repeats. Identical values can stand only once.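 Step 1: Grow cells in 96-well plates. Step 2: Expose to compound for 48 hours at 5 concentrations. Step 3: Interpolate endpoints linearly; if unreached, use highest concentration. GI50 marks 50% less growth. At the TGI there is no net growth.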

Experiments:
Assay in all cases: NCI tumour cell line growth inhibition, 48 h
A549 NSCLC = tested on: A549 NSCLC
HL-60(TB) leukemia = tested on: HL-60(TB) leukemia
HOP-62 NSCLC = tested on: HOP-62 NSCLC
HOP-92 NSCLC = tested on: HOP-92 NSCLC
IGROV1 ovarian = tested on: IGROV1 ovarian
K-562 leukemia = tested on: K-562 leukemia
KM12 colon = tested on: KM12 colon
LOX IMVI melanoma = tested on: LOX IMVI melanoma
SF-295 CNS = tested on: SF-295 CNS
SR leukemia = tested on: SR leukemia

SMILES | GI50 (A549 NSCLC) [µM] | TGI (A549 NSCLC) [µM] | GI50 (HL-60(TB) leukemia) [µM] | TGI (HL-60(TB) leukemia) [µM] | GI50 (HOP-62 NSCLC) [µM] | TGI (HOP-62 NSCLC) | GI50 (HOP-92 NSCLC) [µM] | TGI (HOP-92 NSCLC) | GI50 (IGROV1 ovarian) [µM] | TGI (IGROV1 ovarian) | GI50 (K-562 leukemia) [µM] | TGI (K-562 leukemia) [µM] | GI50 (KM12 colon) [µM] | TGI (KM12 colon) [µM] | GI50 (LOX IMVI melanoma) [µM] | TGI (LOX IMVI melanoma) | GI50 (SF-295 CNS) [µM] | TGI (SF-295 CNS) | GI50 (SR leukemia) [µM] | TGI (SR leukemia) [µM]
CC([C@H]1CCC2C3CCC4C[C@@H](N)CC[C@]4(C)C3CC[C@@]21C)N(C)C (stereo partly specified) | 8.45 | 24.7 | 5.55 | 13.2 | 6.1 | 12 µM | 4.53 | 25.9 µM | 8.88 | 35 µM | 2.27 | 7.34 | 7.55 | 21.4 | 1.61 | 3.44 µM | 6.46 | 22.5 µM | – | –
C=C(CO)[C@@H]1CC[C@]2(COC3CCCCO3)CC[C@]3(C)[C@H](CC[C@@H]4[C@@]5(C)C=C(C=O)C(=O)C(C)(C)[C@@H]5CC[C@]43C)[C@@H]12 (stereo partly specified) | 0.495 | 1.87 | 0.25 | 0.994 | 1.51 | 3.23 µM | 0.147 | 0.312 µM | 0.231 | 0.515 µM | 0.316 | 1.28 | 0.555 | 1.94 | 0.191 | 0.392 µM | 0.506 | 1.79 µM | – | –
COC(=O)C12OCC34C(CC5C(C)C6=CC(=O)OC6=CC5(C)C3C(O)C1O)OC(=O)C(O)C24 (stereo unspecified) | 0.415 | 23.2 | – | 4.27 | 0.177 | 0.704 µM and 3.54 µM | 0.146 | 0.525 µM and 2.33 µM | 0.17 | 0.436 µM and 1.41 µM | 0.0468 | 6.94 | 0.331 | 12.5 | 0.0542 | 0.288 µM and 1.42 µM | 0.351 | 0.956 µM and 6.03 µM | – | –
CO/N=C(\COc1ccc2oc(-c3ccccc3)cc(=O)c2c1)c1ccc(OC)cc1 | 24.4 | 73 | 6.16 | > 100 | 17 | 33 µM | – | – | 17.9 | 42.8 µM | 27.3 | > 100 | 27.1 | > 100 | 41.4 | > 100 µM | 21.7 | 48.9 µM | 11.3 | 36.9
O=NNc1ccc(Sc2ccc(NN=O)cn2)nc1 | – | > 100 | – | > 100 | – | > 100 µM | – | – | – | > 100 µM | – | > 100 | – | > 100 | – | – | – | > 100 µM | – | > 100
CC(C)(C)c1ccc(OCCOCCOc2ccc(C(C)(C)C)cc2S(=O)(=O)Nc2ccc([N+](=O)[O-])cc2)c(S(=O)(=O)Nc2ccc([N+](=O)[O-])cc2)c1 | – | > 100 | – | > 100 | – | > 100 µM | – | 72.3 µM | – | > 100 µM | – | > 100 | – | > 100 | – | > 100 µM | – | > 100 µM | – | –
O=C(CCn1[nH]c(=O)c(Cl)c(Cl)c1=O)NNC(=O)C[n+]1ccccc1 | – | > 100 | – | > 100 | – | > 100 µM | – | – | – | > 100 µM | – | > 100 | – | > 100 | – | > 100 µM | – | > 100 µM | – | –
O=C(NO)[C@@H](Cc1ccccc1)NS(=O)(=O)c1ccc(-c2ccccc2)cc1 | > 25 | > 25 | – | – | 18.1 | > 25 µM | 4.7 | 20.9 µM | 8.52 | > 25 µM | 10.1 | > 25 | > 25 | > 25 | 11.9 | > 25 µM | > 25 | > 25 µM | – | –
Nc1n[n+](-c2ccccc2)no1 | – | > 100 | – | > 100 | – | > 100 µM | – | 92.9 µM | – | > 100 µM | – | > 100 | – | > 100 | – | > 100 µM | – | > 100 µM | – | –
CCN(CC)C(=S)SCN1C(=O)c2ccccc2S1(=O)=O | 41.2 | > 100 | – | – | 39.3 | > 100 µM | > 100 | > 100 µM | 55.2 | > 100 µM | 24 | > 100 | 14.4 | > 100 | 29.5 | > 66.8 µM | > 67.2 | > 100 µM | < 0.01 | 27.7
O=C1OC(=O)C2CCCC3CCCC1C32 (stereo unspecified) | – | > 100 | – | > 100 | – | > 100 µM | – | > 100 µM | – | > 100 µM | – | > 100 | – | > 100 | – | > 100 µM | – | > 100 µM | – | –
Cc1cccc2c1CCC21OC(=O)c2c1ccc1ccccc21 (stereo unspecified) | – | > 100 | – | 66 | – | > 100 µM | – | – | – | > 100 µM | – | 66.7 | – | > 100 | – | > 100 µM | – | > 100 µM | – | 85.3
CCOC(=O)c1cnc2c(ccc3ncccc32)c1NCCCN(CC)CC | – | > 100 | – | 38.4 | – | > 100 µM | – | > 100 µM | – | > 100 µM | – | > 100 | – | > 100 | – | 33.6 µM | – | > 100 µM | – | –
CC(=O)[CH-]C(=O)c1ccccc1.CC(=O)[CH-]C(=O)c1ccccc1.Cc1cc([O-])ccc1Cl.Cc1cc([O-])ccc1Cl.[Ti+4] | 37.6 | > 100 | 13.7 | 44.2 | 19.5 | 70.9 µM | – | – | 26.9 | > 100 µM | 23.3 | > 100 | 14.1 | 31.4 | 12.6 | 31.8 µM | 29.8 | 98.7 µM | – | –
CC1=C(O)/C(=C/C(C)CCC/C(C)=C/C=C/C(C)CCCc2ccoc2)OC1=O (stereo unspecified) | – | 73.6 | – | 63.8 | – | 59.6 µM | – | – | – | – | – | – | – | > 100 | – | > 100 µM | – | 81 µM | – | –
N#Cc1c(N)nc(N2CCOCC2)c(C#N)c1-c1ccccn1 | > 100 | > 100 | > 100 | > 100 | > 100 | > 100 µM | > 52.8 | > 100 µM | > 52.3 | > 100 µM | > 100 | > 100 | > 100 | > 100 | > 100 | > 100 µM | > 100 | > 100 µM | – | –
COc1ccc2c3c(c(C(=O)c4ccccc4)oc13)CCC2 | – | > 100 | – | > 100 | – | > 100 µM | – | – | – | > 100 µM | – | > 100 | – | – | – | > 100 µM | – | > 100 µM | – | –
NS(=O)(=O)CC1CC[CH-]CC1.[Cl-].[Cl-].[Cl-].[Cl-].[Cl-].[Sb+5].c1ccncc1 | > 100 | > 100 | – | – | > 100 | > 100 µM | > 100 | > 100 µM | > 100 | > 100 µM | > 100 | > 100 | > 100 | > 100 | > 100 | > 100 µM | > 100 | > 100 µM | > 100 | > 100
